Results on twelve compounds are retold here after patent US11130756B2, “[1,2,4]Triazolo[4,3-A]pyridinyl substituted indole compounds” (BRISTOL-MYERS SQUIBB COMPANY, priority 2017, dated 2021).

Common to all, as to format: cell-based
One assay addresses T1, human TLR9 (Homo sapiens, UniProt Q9NR96).
T1 construct: host or cells: HEK-Blue cells
T1 sequence (Q9NR96 26-1032): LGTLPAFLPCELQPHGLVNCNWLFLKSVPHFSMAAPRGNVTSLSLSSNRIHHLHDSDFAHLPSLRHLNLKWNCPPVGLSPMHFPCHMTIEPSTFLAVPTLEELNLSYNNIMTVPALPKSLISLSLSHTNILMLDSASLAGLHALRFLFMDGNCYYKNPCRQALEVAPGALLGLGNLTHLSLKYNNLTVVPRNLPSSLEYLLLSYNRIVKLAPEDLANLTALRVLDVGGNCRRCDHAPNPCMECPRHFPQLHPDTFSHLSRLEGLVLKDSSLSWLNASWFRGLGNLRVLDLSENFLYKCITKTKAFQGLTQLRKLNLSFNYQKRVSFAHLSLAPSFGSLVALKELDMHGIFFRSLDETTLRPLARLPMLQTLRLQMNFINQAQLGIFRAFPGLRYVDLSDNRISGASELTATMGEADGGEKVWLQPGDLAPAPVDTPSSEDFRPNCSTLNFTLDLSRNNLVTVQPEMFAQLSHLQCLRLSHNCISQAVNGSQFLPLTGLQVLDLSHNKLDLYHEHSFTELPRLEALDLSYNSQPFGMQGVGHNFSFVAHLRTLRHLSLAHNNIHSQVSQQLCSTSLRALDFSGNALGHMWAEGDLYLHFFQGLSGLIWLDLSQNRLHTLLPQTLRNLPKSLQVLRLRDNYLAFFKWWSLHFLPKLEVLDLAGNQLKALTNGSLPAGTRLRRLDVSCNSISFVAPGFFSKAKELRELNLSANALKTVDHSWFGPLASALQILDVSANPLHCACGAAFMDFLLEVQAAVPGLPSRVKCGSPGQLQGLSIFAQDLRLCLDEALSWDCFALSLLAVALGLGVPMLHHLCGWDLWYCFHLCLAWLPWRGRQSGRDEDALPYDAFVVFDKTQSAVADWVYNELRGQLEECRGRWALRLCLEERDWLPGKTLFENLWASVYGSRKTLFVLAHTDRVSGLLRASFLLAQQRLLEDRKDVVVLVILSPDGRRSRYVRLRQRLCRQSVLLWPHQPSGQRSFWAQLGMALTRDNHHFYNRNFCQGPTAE
Briefly: TLR9 inhibition reporter assay (HEK-Blue, SEAP). The note with it: HEK-Blue cells overexpressing human TLR9, ODN2006 5 nM, 22 hour incubation. A digest of the protocol:
(§1)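 Screening used HEK-Blue cells overexpressing one human TLR (7, 8 or 9) and an IFN-β minimal promoter–NF-κB/AP-1 SEAP construct. Stimulation lasted 22 h at 37 °C with receptor-specific agonist: gardiquimod, R848 or ODN2006 at 7.5 μM, 15.9 μM and 5 nM.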
On the technique in general: In a reporter assay the amount or activity of a reporter protein is the signal.

The next assay deals with T2, human TLR8 (Homo sapiens, UniProt Q9NR97).
T2 construct: host or cells: HEK-Blue cells
T2 sequence (Q9NR97 27-1041): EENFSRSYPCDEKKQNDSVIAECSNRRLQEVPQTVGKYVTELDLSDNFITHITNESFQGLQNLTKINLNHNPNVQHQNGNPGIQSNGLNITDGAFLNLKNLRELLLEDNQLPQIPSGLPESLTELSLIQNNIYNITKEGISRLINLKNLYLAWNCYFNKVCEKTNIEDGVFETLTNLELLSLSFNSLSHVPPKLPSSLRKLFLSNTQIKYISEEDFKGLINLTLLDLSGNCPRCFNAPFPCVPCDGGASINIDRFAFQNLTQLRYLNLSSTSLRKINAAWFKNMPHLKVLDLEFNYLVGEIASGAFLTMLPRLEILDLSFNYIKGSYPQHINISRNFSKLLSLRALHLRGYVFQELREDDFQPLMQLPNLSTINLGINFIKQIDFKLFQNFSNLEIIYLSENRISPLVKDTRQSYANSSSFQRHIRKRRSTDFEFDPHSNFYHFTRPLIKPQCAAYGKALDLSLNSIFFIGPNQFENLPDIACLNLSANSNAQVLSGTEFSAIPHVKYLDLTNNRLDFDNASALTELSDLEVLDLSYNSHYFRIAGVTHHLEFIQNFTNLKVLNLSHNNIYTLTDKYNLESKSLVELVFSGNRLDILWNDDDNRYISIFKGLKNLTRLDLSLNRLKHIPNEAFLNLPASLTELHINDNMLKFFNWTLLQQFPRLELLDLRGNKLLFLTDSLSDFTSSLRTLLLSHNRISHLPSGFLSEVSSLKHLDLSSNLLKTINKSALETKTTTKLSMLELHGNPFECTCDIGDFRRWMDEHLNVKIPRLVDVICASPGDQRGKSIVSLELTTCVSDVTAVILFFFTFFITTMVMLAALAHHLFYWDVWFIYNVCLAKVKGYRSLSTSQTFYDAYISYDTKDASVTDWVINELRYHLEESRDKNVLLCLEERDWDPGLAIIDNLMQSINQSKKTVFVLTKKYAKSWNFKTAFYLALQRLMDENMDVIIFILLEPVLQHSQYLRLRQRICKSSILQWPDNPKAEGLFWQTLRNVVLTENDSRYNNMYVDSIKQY
Briefly: TLR8 inhibition reporter assay (HEK-Blue, SEAP). The following applies: HEK-Blue cells overexpressing human TLR8, R848 15.9 μM, 22 hour incubation. The gist of the method: as §1

The target in a further assay is T3, human TLR7 (Homo sapiens, UniProt Q9NYK1).
T3 construct: host or cells: HEK-Blue cells
T3 sequence (Q9NYK1 27-1049): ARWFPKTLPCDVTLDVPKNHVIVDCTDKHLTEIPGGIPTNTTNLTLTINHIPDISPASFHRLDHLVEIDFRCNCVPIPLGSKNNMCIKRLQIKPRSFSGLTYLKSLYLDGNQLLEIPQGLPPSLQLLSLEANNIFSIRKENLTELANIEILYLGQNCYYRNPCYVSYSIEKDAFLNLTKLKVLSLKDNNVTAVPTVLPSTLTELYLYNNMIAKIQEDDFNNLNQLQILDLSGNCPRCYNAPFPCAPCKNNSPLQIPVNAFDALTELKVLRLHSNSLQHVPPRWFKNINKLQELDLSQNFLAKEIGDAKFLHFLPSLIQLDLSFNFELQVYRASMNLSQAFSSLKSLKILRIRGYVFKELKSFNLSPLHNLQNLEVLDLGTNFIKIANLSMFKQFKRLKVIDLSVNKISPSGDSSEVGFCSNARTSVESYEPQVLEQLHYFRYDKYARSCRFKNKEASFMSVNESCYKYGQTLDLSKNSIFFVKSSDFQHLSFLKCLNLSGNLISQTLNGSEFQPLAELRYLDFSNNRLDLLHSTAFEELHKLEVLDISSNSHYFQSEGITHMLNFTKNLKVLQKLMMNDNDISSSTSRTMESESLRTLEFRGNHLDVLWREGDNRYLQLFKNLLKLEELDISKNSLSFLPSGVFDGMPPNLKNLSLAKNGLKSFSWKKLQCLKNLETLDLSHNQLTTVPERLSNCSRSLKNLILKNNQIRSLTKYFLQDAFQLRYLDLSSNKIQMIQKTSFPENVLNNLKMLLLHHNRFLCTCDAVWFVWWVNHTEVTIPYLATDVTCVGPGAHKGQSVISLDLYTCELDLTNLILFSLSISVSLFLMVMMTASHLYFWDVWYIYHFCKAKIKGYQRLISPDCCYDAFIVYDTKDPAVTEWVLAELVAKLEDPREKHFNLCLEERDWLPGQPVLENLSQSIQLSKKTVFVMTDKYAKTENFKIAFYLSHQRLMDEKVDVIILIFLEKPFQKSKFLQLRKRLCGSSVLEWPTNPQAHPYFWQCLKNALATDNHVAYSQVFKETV
Briefly: TLR7 inhibition reporter assay (HEK-Blue, SEAP). The note with it: HEK-Blue cells overexpressing human TLR7, gardiquimod 7.5 μM, 22 hour incubation. The gist of the method: as §1

Each structure is given as a SMILES string.

By IC50 is commonly meant the point on the concentration scale where inhibition reaches its midpoint. A high value points to a need for much substance. With `Cc1c(-c2[nH]c3ccc(C4CCN(CCCC(F)(F)F)CC4)cc3c2C(C)C)cn2cnnc2c1C` [Example 44, 6-(3-isopropyl-5-(1-(4,4,4-trifluorobutyl)piperidin-4-yl)-1H-indol-2-yl)-7,8-dimethyl-[1,2,4]triazolo[4,3-a]pyridine], the IC50 was found to be 1750 nM against human TLR9, 6.5 nM against human TLR8 and 1.7 nM against human TLR7.

`Cc1c(-c2[nH]c3ccc(C4CCN(Cc5ncn(C)n5)CC4)cc3c2C(C)C)cn2cnnc2c1C` [Example 45, 6-(3-isopropyl-5-(1-((1-methyl-1H-1,2,4-triazol-3-yl)methyl)piperidin-4-yl)-1H-indol-2-yl)-7,8-dimethyl-[1,2,4]triazolo[4,3-a]pyridine]: the IC50 at human TLR9 worked out at 2310 nM; against human TLR8, 8.1 nM; against human TLR7, 3.2 nM.

With `Cc1c(-c2[nH]c3ccc(C4CCN(CCS(C)(=O)=O)CC4)cc3c2C(C)C)cn2cnnc2c1Cl` [Example 46, 8-chloro-6-(3-isopropyl-5-(1-(2-(methylsulfonyl)ethyl)piperidin-4-yl)-1H-indol-2-yl)-7-methyl-[1,2,4]triazolo[4,3-a]pyridine], the figures for the half-inhibitory concentration (IC50) at human TLR9, against human TLR8 and at human TLR7 were 8910 nM, 8.6 nM and 2.1 nM, respectively.

For the compound `Cc1c(-c2[nH]c3ccc(C4CCN(Cc5ncn(C)n5)CC4)cc3c2C(C)C)cn2cnnc2c1Cl` [Example 47, 8-chloro-6-(3-isopropyl-5-(1-((1-methyl-1H-1,2,4-triazol-3-yl)methyl)piperidin-4-yl)-1H-indol-2-yl)-7-methyl-[1,2,4]triazolo[4,3-a] pyridine], the IC50 at human TLR9 turned out to be 2070 nM; on human TLR8, 21.9 nM; at human TLR7, 3.8 nM.

On to `Cc1c(-c2[nH]c3ccc(C4CCN(CCCC(F)(F)F)CC4)cc3c2C(C)C)cn2cnnc2c1Cl` [Example 48, 8-chloro-6-(3-isopropyl-5-(1-(4,4,4-trifluorobutyl)piperidin-4-yl)-1H-indol-2-yl)-7-methyl-[1,2,4]triazolo[4,3-a]pyridine], for which the values for the half-inhibitory concentration (IC50) against human TLR9, on human TLR8 and at human TLR7 were 2570 nM, 13.5 nM and 1.9 nM, respectively.

`Cc1c(-c2[nH]c3ccc(C4CCN(CC(=O)N(C)C)CC4)cc3c2C(C)C)cn2cnnc2c1Cl` [Example 49, 2-(4-(2-(8-chloro-7-methyl-[1,2,4]triazolo[4,3-a]pyridin-6-yl)-3-isopropyl-1H-indol-5-yl)piperidin-1-yl)-N,N-dimethylacetamide]: the IC50 at human TLR9 amounted to 957 nM; at human TLR8 it was 31.1 nM; against human TLR7, 1.5 nM.

For `Cc1c(-c2[nH]c3ccc(C4CCN(CC#N)CC4)cc3c2C(C)C)cn2cnnc2c1Cl` [Example 50, 2-(4-(2-(8-chloro-7-methyl-[1,2,4]triazolo[4,3-a]pyridin-6-yl)-3-isopropyl-1H-indol-5-yl)piperidin-1-yl)acetonitrile], the IC50 at human TLR9 stood at 1090 nM; at human TLR8 it was 57 nM; on human TLR7 it was 1.5 nM.

With `Cc1c(-c2[nH]c3ccc(C4CCN(CC#N)CC4)cc3c2C(C)C)cn2cnnc2c1C` [Example 51, 2-(4-(2-(7,8-dimethyl-[1,2,4]triazolo[4,3-a]pyridin-6-yl)-3-isopropyl-1H-indol-5-yl)piperidin-1-yl)acetonitrile], the results for the IC50 against human TLR9, against human TLR8 and against human TLR7 were 1000 nM, 31.8 nM and 2.8 nM, respectively.

With `Cc1c(-c2[nH]c3ccc(C4CCN(CCN5CCCS5(=O)=O)CC4)cc3c2C(C)C)cn2cnnc2c1C` [Example 52, 2-(2-(4-(2-(7,8-dimethyl-[1,2,4]triazolo[4,3-a]pyridin-6-yl)-3-isopropyl-1H-indol-5-yl)piperidin-1-yl)ethyl)isothiazolidine 1,1-dioxide], the IC50 on human TLR9 came out at 1280 nM; against human TLR8, 5.8 nM; against human TLR7, 1.5 nM.

Take `Cc1c(-c2[nH]c3ccc(C4CCN(CCN5CCCS5(=O)=O)CC4)cc3c2C(C)C)cn2cnnc2c1Cl` [Example 53, 2-(2-(4-(2-(8-chloro-7-methyl-[1,2,4]triazolo[4,3-a]pyridin-6-yl)-3-isopropyl-1H-indol-5-yl)piperidin-1-yl)ethyl) isothiazolidine 1,1-dioxide]: the IC50 against human TLR9 was 565 nM; at human TLR8, 10.1 nM; against human TLR7, 0.9 nM.

For `COc1cc(-c2[nH]c3ccc(C4CCN(CC(=O)N(C)C)CC4)cc3c2C(C)C)cn2cnnc12` [Example 54, 2-(4-(3-isopropyl-2-(8-methoxy-[1,2,4]triazolo[4,3-a]pyridin-6-yl)-1H-indol-5-yl)piperidin-1-yl)-N,N-dimethylacetamide], the half-inhibitory concentration (IC50) on human TLR9 amounted to 99 nM; at human TLR8, 19.5 nM; at human TLR7, 1.9 nM.

With `COc1cc(-c2[nH]c3ccc(C4CCN(CCCC(F)(F)F)CC4)cc3c2C(C)C)cn2cnnc12` [Example 55, 6-(3-isopropyl-5-(1-(4,4,4-trifluorobutyl)piperidin-4-yl)-1H-indol-2-yl)-8-methoxy-[1,2,4]triazolo[4,3-a] pyridine], the IC50 was 1100 nM at human TLR9, 10.6 nM on human TLR8 and 0.9 nM against human TLR7.
